In brackets after ≈: the same amount, converted by molar mass.

The record followed here is US4303657A, “Nitrohydroxyalkyl-substituted quinoxaxiline dioxides and alkanoic acid esters thereof” (International Minerals & Chemical Corp., priority 1979, dated 1981).

Assay [1] can be described thus: Growth promotion and improved feed efficiency feeding test (rye diet). Format: in vivo, male two-day-old broiler-type chicks. Particulars: for Increase in feed efficiency / Increase in weight: over control group. The procedure:
Growth promotion and improved feed efficiency were determined as follows:
Two groups of male two-day-old broiler-type chicks were placed into Petersime starter batteries and given feed and water ad libitum for the duration of each test. Each group was subdivided into six sub-groups with ten birds in each sub-group, thus providing sixty birds per group. One group received the basal feed ration, as given in Table 1 and served as a control. The other group receives the same ration, but in addition there was included P-2229 at a concentration of 100 g/ton. The basal ration was a rye diet which alters the microflora of the gut in the bird which results in a growth depressant effect. When a growth stimulant or promotant is added to the diet, the effect on the birds performance will be more apparent than if a corn base diet was used.
The test period was thirteen days. Individual live body weights and pen feed efficiencies were taken at 2 and 14 days of age.

Assay [2] can be described thus: Growth rate and feed efficiency of animals when included in the feed rations (statement). It is filed as in vivo. Particulars: in words. From the text:
It is an embodiment of this invention to provide a method for promoting the growth of animals and improving their feed efficiency by administering to them a compound of this invention.
The method of administration of a compound of this invention is to incorporate it in the feed rations intended for the animal at a concentration of about 50-150 g/ton of feed, preferably about 100 g/ton. The animals are permitted to feed at liberty throughout the growth period. There are many specialized feed rations for different species of animals. The compounds of this invention can be used with any of the known rations.

The next assay relates to Shigella dysenteriae. Kind of assay: Minimum inhibitory concentration, Shigella dysenteriae. Format: cell-based.
In another assay the test system is Staphylococcus aureus. The assay can be described thus: Minimum inhibitory concentration, Staphylococcus aureus. Format: cell-based.
The test system of the next assay is Aspergillus fumigatus. Kind of assay: Minimum inhibitory concentration, Aspergillus fumigatus. Format: cell-based.
The subject of the next assay is Candida albicans. Kind of assay: Minimum inhibitory concentration, Candida albicans. Format: cell-based.
The next assay concerns Mycobacterium ranae. Kind of assay: Minimum inhibitory concentration, Mycobacterium ranae. It is filed as cell-based.
Another assay has as its system Aspergillus niger. The assay can be described thus: Minimum inhibitory concentration, Aspergillus niger. It is filed as cell-based.
Another assay has as its system Escherichia coli. Kind of assay: Minimum inhibitory concentration, Escherichia coli. Format: cell-based.
The subject of a further assay is Pencillium sp. The assay can be described thus: Minimum inhibitory concentration, Pencillium sp. Format: cell-based.
A further assay relates to Pseudomonas aeruginosa. Kind of assay: Minimum inhibitory concentration, Pseudomonas aeruginosa. Format: cell-based.
For assay [3], the system named is Pasteurella pseudotuberculosis. Kind of assay: microbe, parasite or virus in culture. Format: cell-based. Particulars: Yersinia pseudotuberculosis.
In assay [4] the test system is Streptococcus hemolyticus. The assay can be described thus: Minimum inhibitory concentration, Streptococcus hemolyticus. Format: cell-based. Particulars: Streptococcus pyogenes.
The mark [5] stands for this setting: Table 2, feed consumed to weight gained, control 1.56.
The mark [6] stands for this setting: Table 2, test of Example 1 repeated, control 208.77.
[7] abbreviates: Table 1, 100 g/ton in feed, 13 days.
Where [8] appears, read: Table 3, feed consumed to weight gained, control 1.82.
The mark [9] stands for this setting: when tested in feed rations, in words.

For the molecule `CC(C(O)c1c[n+]([O-])c2ccccc2[n+]1[O-])[N+](=O)[O-]` (stereo not drawn) [Example P-2230, 2-(1-hydroxy-2-nitropropyl)quinoxaline-1,4-dioxide], the feed efficiency in assay [1] (setting [5]) was 1.45. Moreover, in assay [1] (Table 2), the “Increase in feed efficiency” value came out at 7.1 and the Increase in weight is listed as 6.5%. Moreover, the “Body weight gain, av” value in [1] (setting [6]) amounted to 222.37 g.
`COC(=O)C(C(OC(C)=O)c1c[n+]([O-])c2ccccc2[n+]1[O-])[N+](=O)[O-]` (stereo not drawn) [Example P-2236]: the “Body weight gain, av” value in assay [1] (Table 4, control 97.33) came to 154.92 g. In [1] (Table 4, feed consumed to weight gained, control 1.84), this molecule came in with a feed efficiency of 1.56. Further, in [1] (Table 4), the “Increase in feed efficiency” value is given as 15.2 and the Increase in weight was found to be 59.17%.
For the molecule `CCCC(C(O)c1c[n+]([O-])c2ccccc2[n+]1[O-])[N+](=O)[O-]` (stereo not drawn) [Example 13, 2-(1-hydroxy-2-nitropentyl)quinoxaline-1,4-dioxide], in assay [2] (present-tense example), the feed efficiency entry was “increases the feed efficiency” and the growth rate entry is “improves the growth rate”.
In the case of `CCC(C)(C(OC(C)=O)c1c[n+]([O-])c2ccccc2[n+]1[O-])[N+](=O)[O-]` (stereo not drawn) [Example 17, 2-(1-acetoxy-2-methyl-2-nitrobutyl)quinoxaline-1,4-dioxide], in assay [2] (present-tense example), the feed efficiency entry was “increases the feed efficiency” and the growth rate entry is “improves the growth rate”.
In the case of `CCC(C(OC(C)=O)c1c[n+]([O-])c2ccccc2[n+]1[O-])[N+](=O)[O-]` (stereo not drawn) [Example P-2277, 2-(1-acetoxy-2-nitrobutyl)quinoxaline-1,4-dioxide], in [2], the feed efficiency entry was “increases the feed efficiency” and the growth rate entry is on record as “improves the growth rate”.
In the case of `COC(=O)C(C(O)c1c[n+]([O-])c2ccccc2[n+]1[O-])[N+](=O)[O-]` (stereo not drawn) [Example P-2229, methyl-α-nitro-β-hydroxy-2-quinoxalinepropionate-1,4-dioxide], in assay [1] (Table 1, 100 g/ton in feed, 13 days, control 208.73), the “Body weight gain, av” value amounted to 218.75 g. This molecule showed a feed efficiency in [1] (Table 1, feed consumed to weight gained, control 1.49) of 1.48. In [1] (setting [7]), the “Increase in feed efficiency” value was 0.7% and the Increase in weight turned out to be 4.8%.
With `CCC(COC(C)=O)(C(OC(C)=O)c1c[n+]([O-])c2ccccc2[n+]1[O-])[N+](=O)[O-]` (stereo not drawn) [Example 12, 2-(1-acetoxy-2-acetoxymethyl-2-nitrobutyl)quinoxaline-1,4-dioxide], in assay [2] (present-tense example), the feed efficiency entry is reported as “increases the feed efficiency” and the growth rate entry is reported as “improves the growth rate”.
On to `CC(=O)OC(c1c[n+]([O-])c2ccccc2[n+]1[O-])C(C)(C)[N+](=O)[O-]` (stereo not drawn) [Example P-2284, 2-(1-acetoxy-2-methyl-2-nitropropyl)quinoxaline-1,4-dioxide], for which, in [2], the feed efficiency result is given as “increases the feed efficiency” and the growth rate entry is on record as “improves the growth rate”.
As for `CCC(C)(C(O)c1c[n+]([O-])c2ccccc2[n+]1[O-])[N+](=O)[O-]` (stereo not drawn) [Example 14, 2-(1-hydroxy-2-methyl-2-nitrobutyl)quinoxaline-1,4-dioxide], in assay [2] (present-tense example), the feed efficiency result is on record as “increases the feed efficiency” and the growth rate result is “improves the growth rate”.
Turning to `CC(=O)OC(c1c[n+]([O-])c2ccccc2[n+]1[O-])C1([N+](=O)[O-])CCCCC1` (stereo not drawn) [Example 18], in assay [2] (present-tense example), the feed efficiency result is “increases the feed efficiency” and the growth rate result is listed as “improves the growth rate”.
Consider `CCC(C(O)c1c[n+]([O-])c2ccccc2[n+]1[O-])[N+](=O)[O-]` (stereo not drawn) [Example P-2246, 2-(1-hydroxy-2-nitrobutyl)quinoxaline-1,4-dioxide], for which the “Body weight gain, av” value in [1] (Table 3, control 128.6) is reported as 194.7 g. Besides, the feed efficiency in assay [1] (setting [8]) was found to be 1.54. Moreover, in assay [1] (Table 3), the “Increase in feed efficiency” value is recorded as 15.4 and the Increase in weight stood at 51.4%.
Consider `O=[N+]([O-])CC(O)c1c[n+]([O-])c2ccccc2[n+]1[O-]` (stereo not drawn) [Example P-2231, 2-(1-hydroxy-2-nitroethyl)-quinoxaline-1,4-dioxide], for which the feed efficiency in [1] (setting [5]) was determined as 1.46. Further, in assay [1] (Table 2), the “Increase in feed efficiency” value stood at 6.4 and the Increase in weight is recorded as 6.1%. In assay [1] (setting [6]), the “Body weight gain, av” value is listed as 221.54 g.
As to `CC(=O)OC(C[N+](=O)[O-])c1c[n+]([O-])c2ccccc2[n+]1[O-]` (stereo not drawn) [Example P-2243, 2-(1-acetoxy-2-nitroethyl)quinoxaline-1,4-dioxide], in assay [1] (Table 6, control 144.7), the “Body weight gain, av” value is listed as 240.5 g. The molecule also had a feed efficiency in [1] (Table 6, feed consumed to weight gained, control 1.69) of 1.48. Besides, in [1] (Table 6), the “Increase in feed efficiency” value was 12.4 and the Increase in weight was determined as 66.2%.
Regarding `CCC(CO)(C(O)c1c[n+]([O-])c2ccccc2[n+]1[O-])[N+](=O)[O-]` (stereo not drawn) [Example P-2280, 2-(1-hydroxy-2-hydroxymethyl-2-nitrobutyl)quinoxaline-1,4-dioxide], the MIC against Shigella dysenteriae was in the range of 500 to 1000 µg/mL (≈ 1620 to 3230 µM); with Staphylococcus aureus it was 500 to 1000 µg/mL (≈ 1620 to 3230 µM); in the assay with Aspergillus fumigatus it was 500 to 1000 µg/mL (≈ 1620 to 3230 µM); in the assay with Candida albicans it was 100 to 500 µg/mL (≈ 323 to 1620 µM); against Mycobacterium ranae it was 50 to 100 µg/mL (≈ 162 to 323 µM); with Aspergillus niger, 100 to 500 µg/mL (≈ 323 to 1620 µM). Further, the MIC was 100 to 500 µg/mL (≈ 323 to 1620 µM) in the assay with Escherichia coli; 100 to 500 µg/mL (≈ 323 to 1620 µM) against Pencillium sp.; 500 to 1000 µg/mL (≈ 1620 to 3230 µM) against Pseudomonas aeruginosa; 50 to 100 µg/mL (≈ 162 to 323 µM) in assay [3]; 500 to 1000 µg/mL (≈ 1620 to 3230 µM) in assay [4]. Moreover, in assay [1] (setting [9]), the feed efficiency entry is reported as “improved efficiency”. The growth rate result in [1] (setting [9]) is on record as “improved growth rate”.
As to `CC(=O)OC(c1c[n+]([O-])c2ccccc2[n+]1[O-])C(C)[N+](=O)[O-]` (stereo not drawn) [Example P-2242, 2-(1-acetoxy-2-nitropropyl)quinoxaline-1,4-dioxide], in assay [1] (Table 5, control 165.7), the “Body weight gain, av” value came out at 210.6 g. Moreover, the feed efficiency in [1] (Table 5, feed consumed to weight gained, control 1.57) was 1.48. Moreover, in assay [1] (Table 5), the “Increase in feed efficiency” value was determined as 5.7 and the Increase in weight amounted to 27.1%.
As to `O=[N+]([O-])C1(C(O)c2c[n+]([O-])c3ccccc3[n+]2[O-])CCCCC1` (stereo not drawn) [Example 15, α-(1-nitrocyclohexyl)-2-quinoxalinemethanol-1,4-dioxide], in assay [2] (present-tense example), the feed efficiency entry is “increases the feed efficiency” and the growth rate result is “improves the growth rate”.
Regarding `CC(C)(C(O)c1c[n+]([O-])c2ccccc2[n+]1[O-])[N+](=O)[O-]` (stereo not drawn) [Example P-2265, 2-(1-hydroxy-2-methyl-2-nitropropyl)quinoxaline-1,4-dioxide], in assay [1] (Table 3, control 128.6), the “Body weight gain, av” value came out at 188.7 g. The feed efficiency in assay [1] (setting [8]) amounted to 1.59. Moreover, in assay [1] (Table 3), the “Increase in feed efficiency” value stood at 12.6 and the Increase in weight is on record as 46.7%.
For `CCCC(C(OC(C)=O)c1c[n+]([O-])c2ccccc2[n+]1[O-])[N+](=O)[O-]` (stereo not drawn) [Example 16, 2-(1-acetoxy-2-nitropentyl)quinoxaline-1,4-dioxide], in assay [2] (present-tense example), the feed efficiency result was “increases the feed efficiency” and the growth rate entry is listed as “improves the growth rate”.
